Columns and labels:
[1] = Crystal; for molar entropy: 101.33 kPa, Small sample (50 mg) DSC
[2] = Molar enthalpy of transition or fusion; conditions: Crystal; DSC

[Ca+2].[O]=[Mo](=[O])([O-])[O-] [calcium molybdate(VI)]
[1]
Conditions	Normal melting temperature [°C]	molar entropy [J/K/mol]
298.15 K	–	122
310 K	–	126.5
315 K	–	128.4
320 K	–	130.3
325 K	–	132.1
330 K	–	133.9
335 K	–	135.7
340 K	–	137.5
345 K	–	139.3
350 K	–	141
355 K	–	142.8
360 K	–	144.5
365 K	–	146.2
370 K	–	147.9
375 K	–	149.6
380 K	–	151.2
385 K	–	152.9
390 K	–	154.5
395 K	–	156.1
400 K	–	157.7
410 K	–	160.9
420 K	–	164
430 K	–	167.1
440 K	–	170.1
450 K	–	173.1
460 K	–	176
470 K	–	178.8
480 K	–	181.7
490 K	–	184.5
500 K	–	187.2
510 K	–	189.9
520 K	–	192.6
530 K	–	195.2
540 K	–	197.8
550 K	–	200.3
560 K	–	202.8
570 K	–	205.3
580 K	–	207.7
590 K	–	210.1
600 K	–	212.5
620 K	–	217.2
640 K	–	221.7
660 K	–	226.1
680 K	–	230.4
700 K	–	234.6
720 K	–	238.7
740 K	–	242.8
760 K	–	246.7
766 K	–	247.8
DTA	1477	–

Conditions	Molar enthalpy of transition or fusion [kcal/mol]
[2]	24.4

From the NIST ThermoML archive (doi:10.1016/j.tca.2018.01.023)
